Assay results published in patent US20240197682A1, “METHOD FOR TREATING NEUROLOGICAL DISEASES USING SUPRAMOLECULE POLYMER THERAPEUTICS” (The Regents of the University of California, priority 2022, published 2024).
Read-outs that look alike come from different tables or passages of the source.

Experiment: Parallel Artificial Membrane Permeability Assay (PAMPA)
Format: in vitro ADME
Conditions: for PAMPA: P_app: 200 uM test compound, 4 hr; for Papp at 4 hr, 200 uM: PAMPA, read-out: PAMPA: P_app
Protocol: 5 uL of 1% lecithin (VWR 0579) dissolved in n-dodecane (Sigma Aldrich D221104) was applied to each well of a MultiScreen IP PAMPA filter plate (Millipore MAIPSWU10) and allowed to equilibrate for 5 minutes. 300 uL of PBS was added to the acceptor plate and 150 uL of 200 uM test compound dissolved in PBS and 30% ethanol was added to the donor wells before incubating the donor plate in the acceptor plate for 4 hr at 500 rpm. 100 uL was sampled from the donor and acceptor wells and the concentrations were measured by liquid chromatography-mass spectrometry (SCIEX 4500) or UV-VIS plate reader (BMG).

PAMPA: P_app (pH 5.0)	PAMPA: P_app (pH 7.4)	Papp at 4 hr, 200 uM (pH 5.0, 200 uM test compound)	Papp at 4 hr, 200 uM (pH 7.4, 200 uM test compound)	Compound
>50.0 ×10e−6 cm/sec	>50.0 ×10e−6 cm/sec	–	–	CNc1nc(=O)n(-c2nc(-c3cccc(Cl)c3)oc2-c2ccc(Cl)c(F)c2)cc1F [Compound 1]
–	>50.0 ×10e−6 cm/sec	> 50 ×10⁻⁶ cm/s	–	CNC(=O)c1cc2c(NC(=O)C3CC3)nn(-c3ccccc3)c2s1 [Compound 3, 3-(cyclopropanecarboxamido)-N-methyl-1-phenyl-1H-thieno[2,3-c]pyrazole-5-carboxamide]
–	>50.0 ×10e−6 cm/sec	> 50 ×10⁻⁶ cm/s	–	CNC(=O)c1ncc2c(-c3ccnc(C(C)(F)F)n3)nn(-c3ccc(Cl)cc3)c2n1 [Compound 22, 1-(4-chlorophenyl)-3-(2-(1,1-difluoroethyl)pyrimidin-4-yl)-N-methyl-1H-pyrazolo[3,4-d]pyrimidine-6-carboxamide]
–	–	14.9 ×10⁻⁶ cm/s	16.7 ×10⁻⁶ cm/s	CNC(=O)c1cc2c(C3=CCCC3)nn(-c3ccccc3)c2s1 [Compound 31, 3-(cyclopent-1-en-1-yl)-N-methyl-1-phenyl-1H-thieno[2,3-c]pyrazole-5-carboxamide]
–	–	24.4 ×10⁻⁶ cm/s	14.3 ×10⁻⁶ cm/s	COC(=O)c1cc2c(-c3ccccc3)nn(-c3ccccc3)c2[nH]1 [Compound 34, methyl 1,3-diphenyl-1,6-dihydropyrrolo[2,3-c]pyrazole-5-carboxylate]
–	>50.0 ×10e−6 cm/sec	> 50 ×10⁻⁶ cm/s	–	CNC(=O)c1ncc2c(-c3ccnc(C(F)(F)F)n3)nn(-c3ccc(Cl)cc3)c2n1 [Compound 37, 1-(4-chlorophenyl)-N-methyl-3-(2-(trifluoromethyl)pyrimidin-4-yl)-1H-pyrazolo[3,4-d]pyrimidine-6-carboxamide]
–	–	46.1 ×10⁻⁶ cm/s	> 50 ×10⁻⁶ cm/s	CNC(=O)c1cc2c(-c3ccccc3)nn(-c3ccccc3)c2o1 [Compound 38, N-methyl-1,3-diphenyl-1H-furo[2,3-c]pyrazole-5-carboxamide]
–	–	46.7 ×10⁻⁶ cm/s	37 ×10⁻⁶ cm/s	CC(=O)Nc1ncc2c(-c3ccccc3)nn(Cc3cccnc3)c2n1 [Compound 42, N-(3-phenyl-1-(pyridin-3-ylmethyl)-1H-pyrazolo[3,4-d]pyrimidin-6-yl)acetamide]
–	>50.0 ×10e−6 cm/sec	> 50 ×10⁻⁶ cm/s	–	Cc1cn(-c2nc(-c3ccccc3)oc2-c2ccccc2)c(=O)nc1OCCO [Compound 77, 1-(2,5-diphenyl-1,3-oxazol-4-yl)-4-(2-hydroxyethoxy)-5-methyl-1,2-dihydropyrimidin-2-one]
–	–	40.3 ×10⁻⁶ cm/s	> 50 ×10⁻⁶ cm/s	CNc1nc(=O)n(-c2nc(-c3cccc(C)c3)oc2-c2ccc(Cl)c(F)c2)cc1F [Compound 83, 1-(5-(4-chloro-3-fluorophenyl)-2-(m-tolyl)oxazol-4-yl)-5-fluoro-4-(methylamino)pyrimidin-2(1H)-one]
–	–	–	1.46 ×10⁻⁶ cm/s	CC1CCc2cn(-c3nc(-c4ccccc4)oc3-c3ccc(F)cc3)c(=O)nc2O1 (centres unmarked) [Compound 92, 3-(5-(4-fluorophenyl)-2-phenyloxazol-4-yl)-7-methyl-3,5,6,7-tetrahydro-2H-pyrano[2,3-d]pyrimidin-2-one]
–	–	–	5.82 ×10⁻⁶ cm/s	COc1nccc2cc(-c3nc(-n4ccc5cccnc5c4=O)c(-c4ccc(C(F)(F)F)cc4)o3)ccc12 [Compound 124, 7-(2-(1-methoxyisoquinolin-6-yl)-5-(4-(trifluoromethyl)phenyl)oxazol-4-yl)-1,7-naphthyridin-8(7H)-one]
–	–	–	6.27 ×10⁻⁶ cm/s	O=c1nc2c(ccn2C2CC2)cn1-c1nc(-c2cnc(C3CC3)nc2)oc1-c1ccc(Cl)c(F)c1 [Compound 186, 3-[5-(4-chloro-3-fluorophenyl)-2-(2-cyclopropylpyrimidin-5-yl)-1,3-oxazol-4-yl]-7-cyclopropyl-2H,3H,7H-pyrrolo[2,3-d]pyrimidin-2-one]
–	–	36 ×10⁻⁶ cm/s	48 ×10⁻⁶ cm/s	O=c1nc2c(ccn2C2CC2)cn1-c1nc(-c2ccc(F)cc2)oc1-c1ccccc1 [Compound 213, 7-cyclopropyl-3-(2-(4-fluorophenyl)-5-phenyloxazol-4-yl)-3,7-dihydro-2H-pyrrolo[2,3-d]pyrimidin-2-one]
–	–	–	1.63 ×10⁻⁶ cm/s	O=c1nc2c(ccn2C2CC2)cn1-c1nc(-c2ccnc(C3CC3)n2)oc1-c1ccc(F)cc1 [Compound 216, 7-cyclopropyl-3-[2-(2-cyclopropylpyrimidin-4-yl)-5-(4-fluorophenyl)-1,3-oxazol-4-yl]-2H,3H,7H-pyrrolo[2,3-d]pyrimidin-2-one]
–	–	–	2.28 ×10⁻⁶ cm/s	O=c1nc2c(ccn2C(F)(F)F)cn1-c1nc(N2CCCC2)oc1-c1ccc(F)cc1 [Compound 238, 3-[5-(4-fluorophenyl)-2-(pyrrolidin-1-yl)-1,3-oxazol-4-yl]-7-(trifluoromethyl)-2H,3H,7H-pyrrolo[2,3-d]pyrimidin-2-one]

PAMPA: P_app (pH 5.0)	PAMPA: P_app (pH 7.4)	Papp at 4 hr, 200 uM (pH 5.0, 200 uM test compound)	Papp at 4 hr, 200 uM (pH 7.4, 200 uM test compound)	Compound
–	0.664 ×10e−6 cm/sec	–	–	O=c1nc2c(ccn2C(F)(F)F)cn1-c1nc(N2CC(F)C2)oc1-c1ccc(F)cc1 [Compound 239]
47.1 ×10e−6 cm/sec	>50 ×10e−6 cm/sec	–	–	CNC(=O)c1ncc2c(-c3ccccc3)nn(Cc3cccc(F)c3)c2n1 [Compound 249]
>50 ×10e−6 cm/sec	>50 ×10e−6 cm/sec	–	–	CNC(=O)c1ncc2c(-c3ccc(F)cc3)nn(Cc3ccccc3)c2n1 [Compound 250]
>50 ×10e−6 cm/sec	>50 ×10e−6 cm/sec	–	–	CNC(=O)c1ncc2c(-c3cc(F)cc(F)c3)nn(Cc3ccccc3)c2n1 [Compound 252]
–	–	1.2 ×10⁻⁶ cm/s	2 ×10⁻⁶ cm/s	CNC(=O)c1cnc2c(-c3cc(F)cc(F)c3)nn(Cc3ccccc3)c2n1 [Compound 262, 1-benzyl-3-(3,5-difluorophenyl)-N-methyl-1H-pyrazolo[3,4-b]pyrazine-6-carboxamide]
–	–	17.9 ×10⁻⁶ cm/s	20.7 ×10⁻⁶ cm/s	CC(=O)Nc1ncc2c(-c3ccc(F)cc3)nn(Cc3ccccc3)c2n1 [Compound 263, N-(1-benzyl-3-(4-fluorophenyl)-1H-pyrazolo[3,4-d]pyrimidin-6-yl)acetamide]
27.1 ×10e−6 cm/sec	26.4 ×10e−6 cm/sec	–	–	CC(=O)Nc1ncc2c(-c3ccccc3)nn(Cc3ccccc3)c2n1 [Compound 264]
–	–	8.8 ×10⁻⁶ cm/s	8.9 ×10⁻⁶ cm/s	CC(=O)Nc1ncc2c(-c3ccccc3)nn(-c3ccccc3)c2n1 [Compound 272, N-(1,3-diphenyl-1H-pyrazolo[3,4-d]pyrimidin-6-yl)acetamide]
2.8 ×10e−6 cm/sec	3.6 ×10e−6 cm/sec	–	–	CCC(=O)Nc1ncc2c(-c3ccccc3)nn(-c3ccccc3)c2n1 [Compound 273]
0.8 ×10e−6 cm/sec	1.3 ×10e−6 cm/sec	–	–	O=C(Nc1ncc2c(-c3ccccc3)nn(-c3ccccc3)c2n1)C1CC1 [Compound 275]
–	>50 ×10e−6 cm/sec	> 50 ×10⁻⁶ cm/s	–	CC(=O)Nc1ncc2c(-c3ccccc3)nn(-c3cccnc3)c2n1 [Compound 276, N-(3-phenyl-1-(pyridin-3-yl)-1H-pyrazolo[3,4-d]pyrimidin-6-yl)acetamide]
>50 ×10e−6 cm/sec	>50 ×10e−6 cm/sec	–	–	CCn1nc(-c2ccccc2)c2cnc(NC(C)=O)nc21 [Compound 277]
>50 ×10e−6 cm/sec	>50 ×10e−6 cm/sec	–	–	CC(=O)Nc1ncc2c(-c3ccccc3)nn(Cc3ccccn3)c2n1 [Compound 278]
–	>50 ×10e−6 cm/sec	> 50 ×10⁻⁶ cm/s	–	c1ccc(Cn2nc(-c3ccccc3)c3cnc(-c4cnn[nH]4)nc32)cc1 [Compound 284, 1-benzyl-3-phenyl-6-(1H-1,2,3-triazol-5-yl)-1H-pyrazolo[3,4-d]pyrimidine]
7.9 ×10e−6 cm/sec	13.5 ×10e−6 cm/sec	–	–	CNC(=O)c1cc2c(-c3ccccc3)nn(-c3ccc(F)cc3)c2o1 [Compound 292]
